The values that follow come from US7550495B2 (priority 2004, dated 2009).

By solubility is commonly meant how much of the substance goes into solution per volume. By Ki is commonly meant the equilibrium dissociation constant of an inhibitor or competing ligand from its target. Low readings indicate higher affinity, high ones lower affinity. In general, EC50 refers to the concentration at which the effect is half-maximal. A low value points to greater potency. The Emax is the greatest response seen or fitted, relative to the assay's reference.

A short description of series [1]: Assay condition for measuring solubility. Format: physicochemical. The following applies: for solubility at 24 h: thermodynamic from solid, aqueous, sodium phosphate buffer pH 7.4, 24 h, 25° C. The method, then: A 30 mM DMSO stock is prepared of the sample and then a 25 μL aliquot is added to a 96-well plate and genevac at 40° C. for 4 hours. To the genevac compound add 250 μL of sodium phosphate buffer (pH 7.4) and then mix at 1200 rpm for 24 h using an Eppendorf Thermomixer at 25° C. After mixing solution is transferred to a 96-well Whatman GF/B filter plate and then filtered under vacuum. The supernatant is then injected onto the LC/MS for analysis and quantitation is performed using a 1-point calibration for the compound of interest.

Series [2] can be described thus: Metabolic stability assay in human liver microsomes. The format is in vitro ADME. On the procedure: (§1) A solution of 500 μl of 100 μM compound in DMSO is incubated with human or rat liver microsomes (843 μl of microsomes of 0.5618 mg/mL in 30 ml 0.1 M KH2PO4 buffer pH7.4) at 37° C. for 10 min in a 96-deep well plate. NADPH (46 μL) at a concentration of 8.33 mg/ml in 100 mM KH2PO4 buffer pH 7.4 is added to start the reaction. The reaction mixtures are transferred to a 384-well plate containing acetonitrile to quench the reaction at time 0, 10, 20, 30 minutes. The 384 well plate is centrifuged for 30 min at 9000 g, at 4° C., from which samples are analyzed by LC/MS (model: XDB Eclipse C18). Three references are analyzed by LC/MS as a positive control. Data are processed following a standard procedure. The metabolic stability of assayed compounds is expressed as μL/min/mg

Series [3] in a line: Metabolic stability assay in rat liver microsomes. The format is in vitro ADME. The conditions noted are these: pH 7.4, 37° C., read-out: rCLint. On the procedure: as §1
The target in series [4] is T1, Human CB1 receptor (Homo sapiens, UniProt P21554).
T1 construct: purchased Receptor Biology
T1 sequence (P21554 whole entry): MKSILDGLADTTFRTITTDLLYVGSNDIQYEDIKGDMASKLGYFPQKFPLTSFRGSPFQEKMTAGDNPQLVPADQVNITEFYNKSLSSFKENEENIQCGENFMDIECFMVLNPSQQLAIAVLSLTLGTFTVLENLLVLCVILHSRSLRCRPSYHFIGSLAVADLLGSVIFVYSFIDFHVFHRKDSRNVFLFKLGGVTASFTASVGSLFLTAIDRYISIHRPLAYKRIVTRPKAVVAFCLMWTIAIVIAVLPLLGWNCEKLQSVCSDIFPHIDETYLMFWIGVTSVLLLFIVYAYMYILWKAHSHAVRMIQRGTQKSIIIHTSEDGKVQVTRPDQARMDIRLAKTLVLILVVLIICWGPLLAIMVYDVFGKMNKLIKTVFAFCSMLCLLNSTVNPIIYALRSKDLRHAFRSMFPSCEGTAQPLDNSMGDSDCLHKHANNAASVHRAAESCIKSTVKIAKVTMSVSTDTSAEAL
Nature of the series: hCB1 receptor binding (3H-CP55,940 displacement). The following applies: Ki=IC50/(1+[rad]/Kd). On the procedure:
Human CB1 receptor from Receptor Biology (hCB1) or human CB2 receptor from BioSignal (hCB2) membranes are thawed at 37° C., passed 3 times through a 25-gauge blunt-end needle, diluted in the cannabinoid binding buffer (50 mM Tris, 2.5 mM EDTA, 5 mM MgCl2, and 0.5 mg/mL BSA fatty acid free, pH 7.4) and aliquots containing the appropriate amount of protein are distributed in 96-well plates. The IC50 of the compounds of the invention at hCB1 and hCB2 are evaluated from 10-point dose-response curves done with ^3H-CP55,940 at 20000 to 25000 dpm per well (0.17-0.21 nM) in a final volume of 300 μl. The total and non-specific binding are determined in the absence and presence of 0.2 μM of HU210 respectively. The plates are vortexed and incubated for 60 minutes at room temperature, filtered through Unifilters GF/B (presoaked in 0.1% polyethyleneimine) with the Tomtec or Packard harvester using 3 mL of wash buffer (50 mM Tris, 5 mM MgCl2, 0.5 mg BSA pH 7.0). The filters are dried for 1 hour at 55° C. The radioactivity (cpm) is counted in a TopCount (Packard) after adding 65 μl/well of MS-20 scintillation liquid.
Based on the above assays, the dissociation constant (Ki) for a particular compound of the invention towards a particular receptor is determined using the following equation: Ki=IC50/(1+[rad]/Kd), […]

Series [5] deals with T1, Human CB1 receptor. Nature of the series: hCB1 GTPγS binding. The format is biochemical. On the procedure: Human CB1 receptor from Receptor Biology (hCB1) or human CB2 receptor membranes (BioSignal) are thawed at 37° C., passed 3 times through a 25-gauge blunt-end needle and diluted in the GTPγS binding buffer (50 mM Hepes, 20 mM NaOH, 100 mM NaCl, 1 mM EDTA, 5 mM MgCl2, pH 7.4, 0.1% BSA). The EC50 and Emax of the compounds of the invention are evaluated from 10-point dose-response curves done in 300 μl with the appropriate amount of membrane protein and 100000-130000 dpm of GTPg^35S per well (0.11-0.14 nM). The basal and maximal stimulated binding is determined in absence and presence of 1 μM (hCB2) or 10 μM (hCB1) Win 55,212-2 respectively. The membranes are pre-incubated for 5 minutes with 56.25 μM (hCB2) or 112.5 μM (hCB1) GDP prior to distribution in plates (15 μM (hCB2) or 30 μM (hCB1) GDP final). The plates are vortexed and incubated for 60 minutes at room temperature, filtered on Unifilters GF/B (presoaked in water) with the Tomtec or Packard harvester using 3 ml of wash buffer (50 mM Tris, 5 mM MgCl2, 50 mM NaCl, pH 7.0). The filters are dried for 1 hour at 55° C. The radioactivity (cpm) is counted in a TopCount (Packard) after adding 65 μl/well of MS-20 scintillation liquid. […]

Where [6] appears, read: pH 7.4, 37° C., read-out: hCLint.

SMILES strings stand for the structures. In brackets after ≈: the same amount, converted by molar mass.

`CCCS(=O)(=O)Nc1ccc2c(c1)nc(C(C)(C)C)n2CC1CCC(F)(F)CC1` showed a solubility at 24 h in series [1] of 3.79 µM (≈ 1.62 µg/mL). Also, the microsomal CLint at 1.6 µM stood at 10.7 µL/min/mg in series [2] (setting [6]) and 8.04 µL/min/mg in series [3].

Turning to `CCS(=O)(=O)Nc1ccc2c(c1)nc(C(C)(C)C)n2CC1CCC(F)(F)CC1`, the solubility at 24 h in series [1] is 7.36 µM (≈ 3.04 µg/mL). Also, the microsomal CLint at 1.6 µM turned out to be 5.76 µL/min/mg in series [2] (setting [6]) and 11.7 µL/min/mg in series [3].

In the case of `CC(C)(C)c1nc2cc(NS(C)(=O)=O)ccc2n1CC1CCC(F)(F)CC1`, the solubility at 24 h in series [1] was 4.3 µM (≈ 1.72 µg/mL). Moreover, the microsomal CLint at 1.6 µM in series [2] (setting [6]) came out at 7.41 µL/min/mg; in series [3] it was 23.4 µL/min/mg.

Take `CC(C)(C)c1nc2cc(NS(=O)(=O)C3CC3)ccc2n1CC1CCC(F)(F)CC1`: in series [1], the solubility at 24 h turned out to be 5.93 µM (≈ 2.52 µg/mL). In addition, the microsomal CLint at 1.6 µM in series [2] (setting [6]) was 7.77 µL/min/mg; in series [3], 10.2 µL/min/mg.

As to `CC(F)(F)c1nc2cc(NS(=O)(=O)C3CC3)ccc2n1CC1CCC(F)(F)CC1`, the solubility at 24 h in series [1] was found to be 51.9 µM (≈ 22.5 µg/mL). The microsomal CLint at 1.6 µM in series [2] (setting [6]) is 5.27 µL/min/mg; in series [3] it was less than 4 µL/min/mg.

Take `CCS(=O)(=O)Nc1ccc2c(c1)nc(C(C)(C)C)n2CC1CCC(F)CC1` (centres unmarked): the solubility at 24 h in series [1] amounted to 353 µM (≈ 140 µg/mL). The figures for the microsomal CLint at 1.6 µM in series [2] (setting [6]) and in series [3] were 5.72 µL/min/mg and 62.6 µL/min/mg, respectively.

`CC(C)(C)c1nc2cc(NS(=O)(=O)C(C)(C)C)ccc2n1CC1CCC(F)(F)CC1` had a solubility at 24 h in series [1] of 0.61 µM (≈ 0.269 µg/mL). In addition, the microsomal CLint at 1.6 µM was 8.03 µL/min/mg in series [2] (setting [6]) and 15.4 µL/min/mg in series [3].

`CC(F)(F)c1nc2cc(NS(=O)(=O)C(C)(C)C)ccc2n1CC1CCC(F)(F)CC1` registered a solubility at 24 h in series [1] of 0.51 µM (≈ 0.229 µg/mL). Further, the results for the microsomal CLint at 1.6 µM in series [2] (setting [6]) and in series [3] were less than 4 µL/min/mg and 6.87 µL/min/mg, respectively.

For `CC(C)(C)c1nc2cc(NS(=O)(=O)C3CC3)ccc2n1CC1CCC(F)CC1` (centres unmarked), in series [1], the solubility at 24 h is 233 µM (≈ 95 µg/mL). The microsomal CLint at 1.6 µM in series [2] (setting [6]) was less than 4 µL/min/mg.

The compound `CC(C)(C)c1nc2cc(NS(=O)(=O)C(C)(C)C)ccc2n1CC1CCC(F)CC1` (centres unmarked) gave a solubility at 24 h in series [1] of 154 µM (≈ 65.3 µg/mL). Further, the microsomal CLint at 1.6 µM in series [2] (setting [6]) is 11.5 µL/min/mg.

With `CCS(=O)(=O)Nc1ccc2c(c1)nc(C(C)(C)C)n2CC1CCC(F)CC1` (single isomer, unassigned) [Isomer A, N-{2-tert-Butyl-1-[(4-fluorocyclohexyl)methyl]-1H-benzimidazol-5-yl}ethanesulfonamide (isomers)], in series [1] (listed as A), the “Sol. pH 7.4” value was 64 μM. The compound also yielded a Ki at Human CB1 receptor [4] of 148 nM.

Regarding `CCS(=O)(=O)Nc1ccc2c(c1)nc(C(C)(C)C)n2CC1CCC(F)CC1` (single isomer, unassigned) [Isomer B, N-{2-tert-Butyl-1-[(4-fluorocyclohexyl)methyl]-1H-benzimidazol-5-yl}ethanesulfonamide (isomers)], at Human CB1 receptor [5], the 50% effective concentration (EC50) came to 4.9 nM. Besides, the maximal effect (Emax) at Human CB1 receptor [5] (maximal stimulation with 10 μM Win 55,212-2) turned out to be 103%. The “Sol. pH 7.4” value in series [1] (listed as B) worked out at 381 μM. The inhibitory constant (Ki) at Human CB1 receptor [4] was 14.8 nM. Moreover, the microsomal CLint at 1.6 µM in series [2] (pH 7.4, read-out: hClint) came to 7.7 µL/min/mg.
